Our source for the Activity and inhibition values is ChEMBL document CHEMBL3880442, “NHE3-binding compounds and methods for inhibiting phosphate transport” (2014).

For assay [1], the system named is Rattus norvegicus. The assay can be described thus: Effect on phosphate level in urine in Sprague-Dawley rat at 10 mg/kg administered via oral gavage measured after 16 hrs by gravimetric analysis relative to vehicle-treated control. It counts as functional.
Assay [2] deals with Rattus norvegicus. Nature of the assay: Effect on sodium level in urine in Sprague-Dawley rat at 10 mg/kg administered via oral gavage measured after 16 hrs by gravimetric analysis relative to vehicle-treated control. It counts as functional.
For assay [3], the system named is Rattus norvegicus. Nature of the assay: Effect on sodium level in urine in Sprague-Dawley rat at 3 mg/kg administered via oral gavage measured after 16 hrs by gravimetric analysis relative to vehicle-treated control. It counts as functional.
For assay [4], the system named is Rattus norvegicus. Nature of the assay: Effect on phosphate level in urine in Sprague-Dawley rat at 3 mg/kg administered via oral gavage measured after 16 hrs by gravimetric analysis relative to vehicle-treated control. It counts as functional.
The subject of assay [5] is Rattus norvegicus. Nature of the assay: Inhibition of NHE3-mediated intestinal phosphate uptake in rat at 10 mg/kg, po administered with 33-labeled Pi in presence of glucose and calcium. Type of assay: functional, organism-based.
The test system of assay [6] is Rattus norvegicus. The assay can be described thus: Inhibition of NHE3-mediated intestinal phosphate uptake in rat at 10 mg/kg, po administered with 33-labeled Pi in presence of calcium. Type of assay: functional, organism-based.
Assay [7] deals with Rattus norvegicus. The assay can be described thus: Inhibition of NHE3-mediated intestinal phosphate uptake in rat at 10 mg/kg, po administered with 33-labeled Pi. Type of assay: functional, organism-based.
The subject of assay [8] is Rattus norvegicus. Nature of the assay: Effect on sodium level in urine in Sprague-Dawley rat at 1 mg/kg administered via oral gavage measured after 16 hrs by gravimetric analysis relative to vehicle-treated control. Type of assay: functional.
Assay [9] has as its system Rattus norvegicus. Nature of the assay: Effect on fecal form in rat at 10 mg/kg, po administered with 33-labeled Pi. It counts as functional, organism-based.
Assay [10] concerns Rattus norvegicus. Nature of the assay: Reduction in urinary sodium level in rat at 10 mg/kg, po administered with 33-labeled Pi. It counts as functional, organism-based.

Calls of active or inactive are those of the source. The rule behind the calls is not given here.

With `CN(C)[C@H]1Cc2c(Cl)cc(Cl)cc2[C@@H]1Oc1ccc(S(=O)(=O)N(C)CCOCCOCCNC(=O)NCCCCNC(=O)NCCOCCOCCN(C)S(=O)(=O)c2ccc(O[C@H]3c4cc(Cl)cc(Cl)c4C[C@@H]3N(C)C)cc2)cc1`, the Activity in the assay on Rattus norvegicus [1] and in the assay on Rattus norvegicus [2] was 49% in each case.

Turning to `N=C(N)Nc1nc(-c2ccc(N3CCN(CCOCCOCCOCCNC(=O)CCOCCOCCOCCOCCOCCC(=O)NCCOCCOCCOCCN4CCN(c5ccc(-c6nc(NC(=N)N)nc7ccc(Cl)cc67)cc5)CC4)CC3)cc2)c2cc(Cl)ccc2n1`, the Activity in the assay with Rattus norvegicus [2] is listed as 100%.

As for `CN(CC(=O)NCCOCCOCCOCCN1CCN(c2ccc(-c3nc(NC(=N)N)nc4ccc(Cl)cc34)cc2)CC1)CC(=O)NCCOCCOCCOCCN1CCN(c2ccc(-c3nc(NC(=N)N)nc4ccc(Cl)cc34)cc2)CC1`, the Activity was 101% in the assay with Rattus norvegicus [1] and 66% in the assay on Rattus norvegicus [2].

As to `CN1Cc2c(Cl)cc(Cl)cc2[C@H](c2cccc(S(=O)(=O)NCCOCCOCCOCCNC(=O)CN(CCOCCOCCN(CC(=O)NCCOCCOCCOCCNS(=O)(=O)c3cccc([C@@H]4CN(C)Cc5c(Cl)cc(Cl)cc54)c3)CC(=O)NCCOCCOCCOCCNS(=O)(=O)c3cccc([C@@H]4CN(C)Cc5c(Cl)cc(Cl)cc54)c3)CC(=O)NCCOCCOCCOCCNS(=O)(=O)c3cccc([C@@H]4CN(C)Cc5c(Cl)cc(Cl)cc54)c3)c2)C1`, the results for the Activity in the assay with Rattus norvegicus [1] and with Rattus norvegicus [2] were 95% and 51%, respectively.

As for `CN1Cc2c(Cl)cc(Cl)cc2[C@H](c2ccc(S(=O)(=O)NCCOCCOCCOCCNC(=O)COCC(=O)NCCOCCOCCOc3cccc(-c4nc(NC(=N)N)nc5ccc(Cl)cc45)c3)cc2)C1`, the Activity was 150% in the assay with Rattus norvegicus [1] and 87% in the assay on Rattus norvegicus [2].

Turning to `O=C(NCCCCNC(=O)NCCOCCOCCNS(=O)(=O)c1ccc(O[C@H]2c3ccccc3C[C@@H]2N2CCCCC2)cc1)NCCOCCOCCNS(=O)(=O)c1ccc(O[C@H]2c3ccccc3C[C@@H]2N2CCCCC2)cc1`, the results for the Activity in the assay on Rattus norvegicus [1] and in the assay with Rattus norvegicus [2] were 30 - 51% and 35 - 73%, respectively.

In the assay on Rattus norvegicus [2], `CN1Cc2c(Cl)cc(Cl)cc2[C@@H](c2cccc(S(=O)(=O)NCCOCCOCCNC(=O)NCCCCNC(=O)NCCOCCOCCNS(=O)(=O)c3cccc([C@@H]4CN(C)Cc5c(Cl)cc(Cl)cc54)c3)c2)C1.Cl.Cl` registered an Activity of 90%.

With `O=C(NCCCCNC(=O)NCCOCCOCCOCCNS(=O)(=O)c1ccc(O[C@H]2c3ccccc3C[C@@H]2N2CCCCC2)cc1)NCCOCCOCCOCCNS(=O)(=O)c1ccc(O[C@H]2c3ccccc3C[C@@H]2N2CCCCC2)cc1`, the Activity in the assay on Rattus norvegicus [1] was 43 - 52%; with Rattus norvegicus [2] it was 33 - 79%.

As to `CN1Cc2c(Cl)cc(Cl)cc2[C@H](c2cccc(S(=O)(=O)NCCOCCOCCN(C)C(=O)NCCCN(CCCNC(=O)N(C)CCOCCOCCNS(=O)(=O)c3cccc([C@@H]4CN(C)Cc5c(Cl)cc(Cl)cc54)c3)CCCNC(=O)N(C)CCOCCOCCNS(=O)(=O)c3cccc([C@@H]4CN(C)Cc5c(Cl)cc(Cl)cc54)c3)c2)C1`, the Activity in the assay with Rattus norvegicus [3] was determined as 38%; in the assay with Rattus norvegicus [4], 68%.

Take `CN1Cc2c(Cl)cc(Cl)cc2[C@@H](c2cccc(S(=O)(=O)NCCOCCOCCNC(=O)NCCCC(N)(CCCNC(=O)NCCOCCOCCNS(=O)(=O)c3cccc([C@@H]4CN(C)Cc5c(Cl)cc(Cl)cc54)c3)CCCNC(=O)NCCOCCOCCNS(=O)(=O)c3cccc([C@@H]4CN(C)Cc5c(Cl)cc(Cl)cc54)c3)c2)C1`: the Activity came to 56% with Rattus norvegicus [3] and 50% with Rattus norvegicus [4].

As to `CN1Cc2c(Cl)cc(Cl)cc2[C@@H](c2cccc(S(=O)(=O)NCCOCCOCCNC(=O)NCCCCNC(=O)NCCOCCOCCNS(=O)(=O)c3cccc([C@H]4CN(C)Cc5c(Cl)cc(Cl)cc54)c3)c2)C1`, the inhibition result in the assay with Rattus norvegicus [5], in the assay on Rattus norvegicus [6] and in the assay with Rattus norvegicus [7] was “Active” each time.

Take `CN1Cc2c(Cl)cc(Cl)cc2[C@H](c2cccc(S(=O)(=O)NCCOCCOCCNC(=O)CCC(CCC(=O)NCCOCCOCCNS(=O)(=O)c3cccc([C@@H]4CN(C)Cc5c(Cl)cc(Cl)cc54)c3)(CCC(=O)NCCOCCOCCNS(=O)(=O)c3cccc([C@@H]4CN(C)Cc5c(Cl)cc(Cl)cc54)c3)NC(=O)N[C@@H](CC(=O)O)C(=O)O)c2)C1`: the Activity with Rattus norvegicus [3] amounted to 41%; with Rattus norvegicus [4] it was 51%.

For the compound `O=C(O)CN(CCN(CC(=O)O)CC(=O)NCCOCCOCCNS(=O)(=O)c1ccc(O[C@H]2c3ccccc3C[C@@H]2N2CCCCC2)cc1)CC(=O)NCCOCCOCCNS(=O)(=O)c1ccc(O[C@H]2c3ccccc3C[C@@H]2N2CCCCC2)cc1`, the Activity in the assay with Rattus norvegicus [1] was 55 - 85%; with Rattus norvegicus [2] it was 68 - 93%.

Consider `CN1Cc2c(Cl)cc(Cl)cc2[C@H](c2cccc(S(=O)(=O)NCCOCCOCCNC(=O)NCCN(CCNC(=O)NCCOCCOCCNS(=O)(=O)c3cccc([C@@H]4CN(C)Cc5c(Cl)cc(Cl)cc54)c3)C(=O)CCOCCOCCOCCOCCOCCC(=O)N(CCNC(=O)NCCOCCOCCNS(=O)(=O)c3cccc([C@@H]4CN(C)Cc5c(Cl)cc(Cl)cc54)c3)CCNC(=O)NCCOCCOCCNS(=O)(=O)c3cccc([C@@H]4CN(C)Cc5c(Cl)cc(Cl)cc54)c3)c2)C1`, for which the Activity is given as 69% with Rattus norvegicus [1] and 47% in the assay with Rattus norvegicus [2].

Turning to `CN1Cc2c(Cl)cc(Cl)cc2[C@H](c2cccc(S(=O)(=O)NCCOCCOCCNC(=O)Nc3ccc(NC(=O)NCCOCCOCCNS(=O)(=O)c4cccc([C@@H]5CN(C)Cc6c(Cl)cc(Cl)cc65)c4)cc3)c2)C1.Cl.Cl`, the inhibition entry in the assay with Rattus norvegicus [5], with Rattus norvegicus [6] and in the assay with Rattus norvegicus [7] was “Active” throughout. The compound further displayed an Activity in the assay with Rattus norvegicus [8] of 22%. Besides, the result in the assay with Rattus norvegicus [9] and with Rattus norvegicus [10] was Active.

With `CN1Cc2c(Cl)cc(Cl)cc2[C@H](c2cccc(S(=O)(=O)NCCOCCOCCNC(=O)CCC(CCC(=O)NCCOCCOCCNS(=O)(=O)c3cccc([C@@H]4CN(C)Cc5c(Cl)cc(Cl)cc54)c3)(CCC(=O)NCCOCCOCCNS(=O)(=O)c3cccc([C@@H]4CN(C)Cc5c(Cl)cc(Cl)cc54)c3)NC(=O)N3CCN(CCOCCO)CC3)c2)C1`, the Activity is recorded as 31% with Rattus norvegicus [3] and 34% with Rattus norvegicus [4].
